The record followed here is ChEMBL document CHEMBL4342507, “Targeting YAP Degradation by a Novel 1,2,4-Oxadiazole Derivative via Restoration of the Function of the Hippo Pathway” (ACS Med Chem Lett, 2020).

Series [1] has as its target T1, Serine/threonine-protein kinase LATS1 (Homo sapiens) (UniProt O95835).
T1 sequence (whole entry): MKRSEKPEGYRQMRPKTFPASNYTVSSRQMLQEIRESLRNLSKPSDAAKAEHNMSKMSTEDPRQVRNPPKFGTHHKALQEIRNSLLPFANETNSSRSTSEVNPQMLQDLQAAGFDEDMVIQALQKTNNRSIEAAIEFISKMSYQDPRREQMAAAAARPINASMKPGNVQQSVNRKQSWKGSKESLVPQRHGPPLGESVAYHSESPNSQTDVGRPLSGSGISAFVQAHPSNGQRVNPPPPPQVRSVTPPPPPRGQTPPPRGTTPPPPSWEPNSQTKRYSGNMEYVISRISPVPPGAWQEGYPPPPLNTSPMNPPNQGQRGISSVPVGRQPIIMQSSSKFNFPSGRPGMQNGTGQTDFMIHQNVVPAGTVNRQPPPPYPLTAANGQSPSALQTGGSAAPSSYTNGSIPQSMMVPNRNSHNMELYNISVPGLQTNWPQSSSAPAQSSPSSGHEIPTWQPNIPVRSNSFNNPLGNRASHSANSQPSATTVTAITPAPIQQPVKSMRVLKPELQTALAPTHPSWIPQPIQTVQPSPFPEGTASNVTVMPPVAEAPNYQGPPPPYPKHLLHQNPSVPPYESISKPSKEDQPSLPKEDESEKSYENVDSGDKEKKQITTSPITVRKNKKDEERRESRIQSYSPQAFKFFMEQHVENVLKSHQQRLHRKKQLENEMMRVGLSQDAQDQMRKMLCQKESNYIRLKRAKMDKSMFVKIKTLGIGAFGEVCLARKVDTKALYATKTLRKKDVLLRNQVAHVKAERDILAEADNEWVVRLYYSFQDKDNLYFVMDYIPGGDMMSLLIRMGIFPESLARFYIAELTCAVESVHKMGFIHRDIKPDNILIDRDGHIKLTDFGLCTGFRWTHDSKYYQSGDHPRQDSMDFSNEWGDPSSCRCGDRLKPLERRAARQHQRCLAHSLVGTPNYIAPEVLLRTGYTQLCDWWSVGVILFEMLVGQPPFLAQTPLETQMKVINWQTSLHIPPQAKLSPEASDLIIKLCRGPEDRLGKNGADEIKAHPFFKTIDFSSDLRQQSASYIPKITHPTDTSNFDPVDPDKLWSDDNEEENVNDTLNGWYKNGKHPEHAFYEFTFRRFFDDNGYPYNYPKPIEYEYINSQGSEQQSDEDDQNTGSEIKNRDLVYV
In words: Activation of LATS1 in triple-negative human SUM159 cells assessed as induction of YAP degradation by measuring suppression of YAP protein expression at 0.25 to 1 uM measured after 12 hrs by Western blot analysis. (In western blotting, separated proteins are transferred to a membrane and probed.)

Series [2] relates to MDA-MB-231. As to the kind of experiment: Cytotoxicity against human MDA-MB-231 cells assessed as reduction in cell viability measured after 72 hrs by MTT assay. In kind it is functional, cell-based.
For series [3], the system named is PC-3. As to the kind of experiment: Cytotoxicity against human PC3 cells assessed as reduction in cell viability at 0.2 to 1.2 uM by MTT assay. The format is functional, cell-based. The following applies: TDE = time-dependent effect.
For series [4], the system named is PC-9. As to the kind of experiment: Cytotoxicity against human PC9 cells assessed as reduction in cell viability at 0.2 to 1.2 uM by MTT assay. The format is functional, cell-based. The note with it: TDE = time-dependent effect.
Series [5] has as its system MDA-MB-231. In words: Cytotoxicity against human MDA-MB-231 cells ectopically overexpressed with wild type FLAG-tagged YAP assessed as reduction in cell viability at 0.2 to 1.2 uM measured after 72 hrs by MTT assay. The format is functional, cell-based.
For series [6], the target named is T1, Serine/threonine-protein kinase LATS1 (Homo sapiens). As to the kind of experiment: Activation of LATS1 in human SUM159 cells assessed as increase in YAP phosphorylation at Ser397 at 0.25 to 1.5 uM measured after 12 to 24 hrs by immunoblotting analysis. In kind it is cell-based.
Series [7] shares this target. As to the kind of experiment: Activation of LATS1 in human PC3 cells assessed as increase in YAP phosphorylation at Ser397 at 0.25 to 1.5 uM measured after 24 to 48 hrs by immunoblotting analysis. The format is cell-based.
The target is the same in series [8]. As to the kind of experiment: Activation of LATS1 in human MDA-MB-231 cells assessed as increase in phosphorylation at Thr1079 residue measured after 24 hrs by Western blot analysis. The format is cell-based.
Series [9] has the same target. As to the kind of experiment: Activation of LATS1 in human SUM159 cells assessed as increase in phosphorylation at Thr1079 residue measured after 12 hrs by Western blot analysis. The format is cell-based.
For series [10] the target is unchanged. In words: Activation of LATS1 in human PC3 cells assessed as increase in phosphorylation at Thr1079 residue measured after 24 hrs by Western blot analysis. The format is cell-based.
Series [11] has as its target Serine/threonine-protein kinase 3/4 (Homo sapiens) (UniProt Q13043+Q13188). In words: Activation of MST1/2 in human PC3 cells assessed as effect on phosphorylation at T183/T180 residues at 0.25 to 1.5 uM measured after 24 hrs by Western blot analysis. In kind it is cell-based.
The subject of series [12] is MDA-MB-231. As to the kind of experiment: Effect on MST1 expression in human MDA-MB-231 cells at 0.25 to 1.5 uM measured after 24 hrs by Western blot analysis. In kind it is functional, cell-based.
The subject of series [13] is MDA-MB-231. As to the kind of experiment: Antitumor activity against human MDA-MB-231 cells xenografted in athymic Nude-Foxn1nu BALB/c mouse assessed as tumor growth suppression at 200 mg/kg, po administered once daily via gavage for 40 days and measured twice a week during treatment period by caliper method relative to control. In kind it is functional. The following applies: MDA-MB-231, po, 960 h. Background: A xenograft is tissue or cells of one species grown in another, often human tumour cells in immunodeficient mice.

The nature of series [14]: Acute toxicity in athymic Nude-Foxn1nu BALB/c mouse xenografted with human MDA-MB-231 cells assessed as effect on serum albumin level at 200 mg/kg, po administered once daily via gavage for 14 days. In kind it is organism-based. The note with it: in vivo, 336 h.
Series [15] in a line: Acute toxicity in athymic Nude-Foxn1nu BALB/c mouse xenografted with human MDA-MB-231 cells assessed as effect on serum total cholesterol level level at 200 mg/kg, po administered once daily via gavage for 14 days. The format is organism-based. The following applies: in vivo, 336 h.
Series [16] has as its system Mus musculus. In words: Downregulation of cyclin D1 protein expression in tumor of athymic Nude-Foxn1nu BALB/c mouse xenografted with human MDA-MB-231 cells at 200 mg/kg, po administered once daily via gavage for 40 days by immunoblotting analysis. The format is functional, organism-based.
The subject of series [17] is MCF7. In words: Cytostatic activity against human MCF7 cells assessed as cell viability at concentration of greater than IC50 measured up to 72 hrs by MTT assay. In kind it is functional, cell-based. Background: Tetrazolium dyes change colour on reduction, which living cells bring about.
Series [18] relates to SUM-159-PT. In words: Cytostatic activity against human SUM159 cells assessed as cell viability at concentration of greater than IC50 measured up to 72 hrs by MTT assay. The format is functional, cell-based.
Series [19] has as its system MDA-MB-231. In words: Cytostatic activity against human MDA-MB-231 cells assessed as cell viability at concentration of greater than IC50 measured up to 72 hrs by MTT assay. In kind it is functional, cell-based.
Series [20] concerns SUM-159-PT. As to the kind of experiment: Effect on MOB expression in human SUM159 cells at 0.25 to 1.5 uM measured after 12 hrs by Western blot analysis. The format is functional, cell-based.
For series [21], the system named is Mus musculus. As to the kind of experiment: Downregulation of YAP protein expression in tumor of athymic Nude-Foxn1nu BALB/c mouse xenografted with human MDA-MB-231 cells at 200 mg/kg, po administered once daily via gavage for 40 days by immunoblotting analysis. The format is functional, organism-based.

What is called IC50 is the point on the concentration scale where inhibition reaches its midpoint. Broadly, the inhibition in vivo is how much of the control response was suppressed.

Structures are written as SMILES. Active and inactive are the calls of the source. The calls are words filed in the database; no cut-off is given here.

Chain of Serine/threonine-protein kinase 3/4 (Homo sapiens) (Q13043 whole entry, looked up): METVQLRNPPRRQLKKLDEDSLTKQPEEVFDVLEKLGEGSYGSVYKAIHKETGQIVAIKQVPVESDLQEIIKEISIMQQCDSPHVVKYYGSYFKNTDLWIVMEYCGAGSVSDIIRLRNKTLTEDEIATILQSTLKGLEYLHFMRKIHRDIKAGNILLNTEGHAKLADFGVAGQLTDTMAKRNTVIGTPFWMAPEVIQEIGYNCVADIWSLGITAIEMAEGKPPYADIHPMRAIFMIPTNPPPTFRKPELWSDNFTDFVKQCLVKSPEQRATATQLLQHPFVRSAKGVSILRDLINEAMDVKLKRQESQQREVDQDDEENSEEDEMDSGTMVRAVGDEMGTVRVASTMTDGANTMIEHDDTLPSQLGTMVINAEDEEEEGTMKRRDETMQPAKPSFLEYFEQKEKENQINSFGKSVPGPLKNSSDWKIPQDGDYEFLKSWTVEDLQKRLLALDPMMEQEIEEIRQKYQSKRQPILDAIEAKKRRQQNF
Chain of Serine/threonine-protein kinase 3/4 (Homo sapiens) (Q13188 whole entry, looked up): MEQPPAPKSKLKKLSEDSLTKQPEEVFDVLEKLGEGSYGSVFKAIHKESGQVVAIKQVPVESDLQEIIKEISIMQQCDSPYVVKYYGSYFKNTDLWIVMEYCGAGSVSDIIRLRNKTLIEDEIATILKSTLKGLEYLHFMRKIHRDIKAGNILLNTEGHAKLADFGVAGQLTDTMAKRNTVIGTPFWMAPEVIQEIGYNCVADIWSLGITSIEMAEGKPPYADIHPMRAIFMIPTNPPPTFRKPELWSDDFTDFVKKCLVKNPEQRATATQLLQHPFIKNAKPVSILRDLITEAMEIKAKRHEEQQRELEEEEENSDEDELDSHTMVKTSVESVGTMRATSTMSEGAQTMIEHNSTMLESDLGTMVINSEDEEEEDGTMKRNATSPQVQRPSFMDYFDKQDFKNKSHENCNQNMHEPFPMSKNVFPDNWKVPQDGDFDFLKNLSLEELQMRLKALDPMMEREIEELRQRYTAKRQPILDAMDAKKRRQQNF

For `CC(=O)Nc1ccc(NC(=O)Nc2cccc(-c3nc(-c4ccc(NC(=O)c5cccnc5)cc4Cl)no3)c2)cc1C(F)(F)F`, the outcome in [1], in [6], in series [17], in series [18] and in series [19] was Active. Also, the Activity result in series [2] is “Dose-dependent effect”; in series [3], “Tde”; in series [4] it was “Tde”; in [8], “Dose-dependent effect”; in series [9] it was “Dose-dependent effect”; in series [10] it was “Dose-dependent effect”. Moreover, the Activity result in series [14] and in series [15] was “Non-Toxic” each time. Moreover, the IC50 in [2] (MDA-MB-231, 72 h) is 0.4 to 0.8 µM. Also, the outcome in series [5], in series [7], in [11], in series [12] and in series [20] was inactive. Also, in series [13], the inhibition in vivo at 200 mg/kg came out at 65%. Moreover, the inhibition entry in series [16] and in series [21] was “Active” in each case.
